Experimental data published in patent publication US8501804B2, “Bicyclic compound” (Takeda Pharmaceutical Company Limited, priority 2008, dated 2013).

How the values were obtained:
[1] = biological target: T1, human ACC2 (Nd) (Homo sapiens, UniProt O00763); experiment: ACC2 inhibitory activity (malachite green); assay type: biochemical; settings: test compound 10 μM; for inhibition at 10 µM: read-out: ACC2 10 μM inhibitory rate (%)
T1 construct: His6 (from vector pFAST-BacHTa); made in house; host or cells: SF-9 insect cells, recombinant baculovirus BAC-ACC2 (Nd)
Experimental: The ACC2 inhibitory action of the compound of the present invention was evaluated by the following method.
(1) Cloning of Human ACC2 Gene and Preparation of Recombinant Baculovirus
(§1) Human ACC2 gene was cloned by PCR using a human skeletal muscle cDNA library (Clontech) as a template and Primer 1 and Primer 2 shown below. Primer 1 and Primer 2 were prepared by adding SalI, XbaI restriction enzyme recognition sequences based on the information of the base sequence of human ACC2 gene (Genbank Accession U89344).
(§2) PCR was performed using Pyrobest DNA polymerase (TAKARA BIO INC.). The obtained PCR product was cloned to pT7 Blue vector (Novagen) and, after confirmation of the base sequence, digested with restriction enzymes SalI and XbaI. The obtained DNA fragment was inserted into pFAST-BacHTa (Invitrogen) digested with restriction enzymes SalI and XbaI to give expression plasmid ACC2/pFAST-BacHTa.
A plasmid for expression of ACC2 without a mitochondrial targeting sequence was prepared by PCR using the expression plasmid as a template, and Primer 3 (SalI restriction enzyme recognition sequence was added) and Primer 4 prepared by reference to the information of human ACC2 gene base sequence (Genbank Accession U89344).
as §2, with “Pyrobest-DNA” for “Pyrobest DNA”, “AflII.” for “XbaI.”, “ACC2/pFAST-BacHTa” for “pFAST-BacHTa (Invitrogen)”, “AflII” for “XbaI”, “ACC2mito7/pFAST-BacHTa.” for “ACC2/pFAST-BacHTa.”
Using the expression plasmid ACC2mito7/pFAST-BacHTa and BAC-TO-BAC Baculovirus Expression System (Invitrogen), virus stock BAC-ACC2 of recombinant Baculovirus (N terminal deleted (hereinafter Nd)) was prepared.
(2) Preparation of ACC2 (Nd) Protein
SF-9 cells (Invitrogen) were inoculated to a medium (2 L) for insect cells (Sf-900IISFM medium (Invitrogen) containing 10% fetal bovine serum (Trace), 50 mg/L Gentamicin (Invitrogen), 0.1% Pluronic F-68 (Invitrogen)) at 0.5×10^6 cells/mL, and cultured with shaking in Wave Bioreactor (Wave) at 27° C., 20 rpm, rocking angle 6°, oxygen concentration 30%.
On day 4 of the culture, 3 L of the medium for insect cells was added, the rocking angle was set to 8°, and the cells were cultured. On day 5 of the culture, 100 ml of recombinant Baculovirus BAC-ACC2 (Nd) was added, 5 L of the medium for insect cells was further added, the rocking angle was set to 11°, and the cells were cultured for 3 days. The culture medium was centrifuged at 1000×g for 10 min to give virus-infected cells. The cells were washed with phosphate buffered saline (Invitrogen) and centrifuged under the same conditions. The obtained cells were cryopreserved at −80° C.
The cryopreserved cells were thawed in ice and suspended in 900 ml of 25 mM HEPES buffer (pH 7.5) containing 10% Glycerol, 0.13 M NaCl, 1 mM EDTA, 25 mM Sodium β-Glycerophosphate and 1 mM Sodium Orthovanadate, and supplemented with Complete Protease Inhibitor (Nippon Boehringer Ingelheim Co., Ltd.). The obtained suspension was homogenized three times in a polytron homogenizer (Kinematica) at 20,000 rpm for 30 sec. The obtained cell disruption solution was clarified by centrifugation at 31000×g for 60 min, and filtered through a 0.45 μm filter. The filtrate was passed through a column packed with 60 mL of Ni-NTA Super Flow Gel (QUIAGEN) at a flow rate of about 5 mL/min. The column was washed with buffer A (50 mM HEPES (pH 7.5) containing 0.3 M NaCl), further washed with buffer A containing 20 mM Imidazole, and eluted with buffer A containing 100 mM Imidazole. The eluate was concentrated with Vivaspin 20 (Vivascience) with a molecular weight cut off of 30K. The obtained concentrate was dialyzed against 50 mM HEPES (pH 7.5) containing 10 mM MgCl2, 2 mM Dithiothreitol, 10 mM Tripotassium Citrate and 0.3 M NaCl. The inner dialysate was filtered through a 0.22 μm filter to give ACC2 (Nd). […]

[2] = biological target: T2, human ACC1 (Homo sapiens, UniProt Q13085); experiment: ACC1 inhibitory activity (malachite green); assay type: biochemical; settings: test compound 10 μM; for inhibition at 10 µM: read-out: ACC1 10 μM inhibitory rate (%)
T2 construct: His6 (from vector pFAST-BacHTc); made in house; host or cells: SF-9 insect cells, recombinant baculovirus BAC-ACC1
Experimental: The ACC1 inhibitory action of the compound of the present invention was evaluated by the following method.
(1) Cloning of Human ACC1 Gene and Preparation of Recombinant Baculovirus
as §1, with “ACC1” for “ACC2”, “liver” for “skeletal muscle”, “NotI” for “XbaI”, “U19822).” for “U89344).”
as §2, with “NotI.” for “XbaI.”, “pFAST-BacHTc” for “pFAST-BacHTa”, “NotI” for “XbaI”, “ACC1/pFAST-BacHTc.” for “ACC2/pFAST-BacHTa.”
Using the expression plasmid ACC1/pFAST-BacHTc and BAC-TO-BAC Baculovirus Expression System (Invitrogen), virus stock BAC-ACC1 of recombinant Baculovirus was prepared.
(2) Preparation of ACC1 Protein
SF-9 cells (Invitrogen) were inoculated to a medium (1 L) for insect cells (Sf-900IISFM medium (Invitrogen) containing 10% fetal bovine serum (Trace), 50 mg/L Gentamicin (Invitrogen), 0.1% Pluronic F-68 (Invitrogen)) at 1×10^6 cells/mL, and cultured with shaking in 2 L meyer at 27° C., 100 rpm.
After 24 hr of the culture, 10 mL of recombinant Baculovirus BAC-ACC1 was added, and the cells were cultured for 3 days. The culture medium was centrifuged at 1000×g for 5 min to give virus-infected cells. The cells were washed with phosphate buffered saline (Invitrogen) and centrifuged under the same conditions. The obtained cells were cryopreserved at −80° C.
The cryopreserved cells were thawed in ice and suspended in 100 mL of 25 mM HEPES buffer (pH 7.5) containing 10% Glycerol, 0.13 M NaCl, 1 mM EDTA, 25 mM Sodium […] and 1 mM Sodium Orthovanadate, and supplemented with Complete Protease Inhibitor (Nippon Boehringer Ingelheim Co., Ltd.). The obtained suspension was homogenized three times in a polytron homogenizer (Kinematica) at 20,000 rpm for 30 sec. The obtained cell disruption solution was clarified by centrifugation at 185700×g for 50 min, and filtered through a 0.45 μm filter. The filtrate was passed through a column packed with 12 ml of Ni-NTA Super Flow Gel (QUIAGEN) at a flow rate of about 5 mL/min. The column was washed with buffer A (50 mM HEPES (pH 7.5) containing 0.3 M NaCl), further washed with buffer A containing 20 mM Imidazole, and eluted with buffer A containing 100 mM Imidazole. The eluate was concentrated with Vivaspin 20 (Vivascience) with a molecular weight cut off of 30K. The obtained concentrate was dialyzed against Sephadex G-25 (Amersham Biosciences, 358 mL) equilibrated with 50 mM HEPES (pH 7.5) containing 10 mM MgCl2, 2 mM Dithiothreitol, 10 mM Tripotassium Citrate and 0.3 M NaCl. The inner dialysate was concentrated with Vivaspin 20 (Vivascience) with molecular weight cut off of 30K, and concentrate was filtered through a 0.22 μm filter to give ACC1. The obtained ACC1 was cryopreserved at −80° C.
(3) Measurement of ACC1 Inhibitory Activity
ACC1 (0.93 mg/ml) obtained in the above-mentioned (2) was diluted with an enzyme reaction buffer (50 mM HEPES (pH 7.5), 10 mM MgCl2, 10 mM Tripotassium Citrate, 2 mM Dithiothreitol, 0.75 mg/ml Fatty acid free BSA) to a concentration of 8 μg/ml, and the mixture was added to each well of a 384 well assay plate (Nunc 265196) by 10 μl. A test compound was dissolved in dimethyl sulfoxide (DMSO) and the mixture was diluted with an enzyme reaction buffer and the resulting solution (5 μl) was added to each well. The mixture was incubated at 30° C. for 60 min. Then, a substrate solution (50 mM KHCO3, 200 μM ATP, 200 μM Acetyl-CoA, 5 μl) was added to each well, and the mixture was reacted at 30° C. for 20 min (test compound addition group). […]

T1 sequence (O00763 117-2458 limits assumed): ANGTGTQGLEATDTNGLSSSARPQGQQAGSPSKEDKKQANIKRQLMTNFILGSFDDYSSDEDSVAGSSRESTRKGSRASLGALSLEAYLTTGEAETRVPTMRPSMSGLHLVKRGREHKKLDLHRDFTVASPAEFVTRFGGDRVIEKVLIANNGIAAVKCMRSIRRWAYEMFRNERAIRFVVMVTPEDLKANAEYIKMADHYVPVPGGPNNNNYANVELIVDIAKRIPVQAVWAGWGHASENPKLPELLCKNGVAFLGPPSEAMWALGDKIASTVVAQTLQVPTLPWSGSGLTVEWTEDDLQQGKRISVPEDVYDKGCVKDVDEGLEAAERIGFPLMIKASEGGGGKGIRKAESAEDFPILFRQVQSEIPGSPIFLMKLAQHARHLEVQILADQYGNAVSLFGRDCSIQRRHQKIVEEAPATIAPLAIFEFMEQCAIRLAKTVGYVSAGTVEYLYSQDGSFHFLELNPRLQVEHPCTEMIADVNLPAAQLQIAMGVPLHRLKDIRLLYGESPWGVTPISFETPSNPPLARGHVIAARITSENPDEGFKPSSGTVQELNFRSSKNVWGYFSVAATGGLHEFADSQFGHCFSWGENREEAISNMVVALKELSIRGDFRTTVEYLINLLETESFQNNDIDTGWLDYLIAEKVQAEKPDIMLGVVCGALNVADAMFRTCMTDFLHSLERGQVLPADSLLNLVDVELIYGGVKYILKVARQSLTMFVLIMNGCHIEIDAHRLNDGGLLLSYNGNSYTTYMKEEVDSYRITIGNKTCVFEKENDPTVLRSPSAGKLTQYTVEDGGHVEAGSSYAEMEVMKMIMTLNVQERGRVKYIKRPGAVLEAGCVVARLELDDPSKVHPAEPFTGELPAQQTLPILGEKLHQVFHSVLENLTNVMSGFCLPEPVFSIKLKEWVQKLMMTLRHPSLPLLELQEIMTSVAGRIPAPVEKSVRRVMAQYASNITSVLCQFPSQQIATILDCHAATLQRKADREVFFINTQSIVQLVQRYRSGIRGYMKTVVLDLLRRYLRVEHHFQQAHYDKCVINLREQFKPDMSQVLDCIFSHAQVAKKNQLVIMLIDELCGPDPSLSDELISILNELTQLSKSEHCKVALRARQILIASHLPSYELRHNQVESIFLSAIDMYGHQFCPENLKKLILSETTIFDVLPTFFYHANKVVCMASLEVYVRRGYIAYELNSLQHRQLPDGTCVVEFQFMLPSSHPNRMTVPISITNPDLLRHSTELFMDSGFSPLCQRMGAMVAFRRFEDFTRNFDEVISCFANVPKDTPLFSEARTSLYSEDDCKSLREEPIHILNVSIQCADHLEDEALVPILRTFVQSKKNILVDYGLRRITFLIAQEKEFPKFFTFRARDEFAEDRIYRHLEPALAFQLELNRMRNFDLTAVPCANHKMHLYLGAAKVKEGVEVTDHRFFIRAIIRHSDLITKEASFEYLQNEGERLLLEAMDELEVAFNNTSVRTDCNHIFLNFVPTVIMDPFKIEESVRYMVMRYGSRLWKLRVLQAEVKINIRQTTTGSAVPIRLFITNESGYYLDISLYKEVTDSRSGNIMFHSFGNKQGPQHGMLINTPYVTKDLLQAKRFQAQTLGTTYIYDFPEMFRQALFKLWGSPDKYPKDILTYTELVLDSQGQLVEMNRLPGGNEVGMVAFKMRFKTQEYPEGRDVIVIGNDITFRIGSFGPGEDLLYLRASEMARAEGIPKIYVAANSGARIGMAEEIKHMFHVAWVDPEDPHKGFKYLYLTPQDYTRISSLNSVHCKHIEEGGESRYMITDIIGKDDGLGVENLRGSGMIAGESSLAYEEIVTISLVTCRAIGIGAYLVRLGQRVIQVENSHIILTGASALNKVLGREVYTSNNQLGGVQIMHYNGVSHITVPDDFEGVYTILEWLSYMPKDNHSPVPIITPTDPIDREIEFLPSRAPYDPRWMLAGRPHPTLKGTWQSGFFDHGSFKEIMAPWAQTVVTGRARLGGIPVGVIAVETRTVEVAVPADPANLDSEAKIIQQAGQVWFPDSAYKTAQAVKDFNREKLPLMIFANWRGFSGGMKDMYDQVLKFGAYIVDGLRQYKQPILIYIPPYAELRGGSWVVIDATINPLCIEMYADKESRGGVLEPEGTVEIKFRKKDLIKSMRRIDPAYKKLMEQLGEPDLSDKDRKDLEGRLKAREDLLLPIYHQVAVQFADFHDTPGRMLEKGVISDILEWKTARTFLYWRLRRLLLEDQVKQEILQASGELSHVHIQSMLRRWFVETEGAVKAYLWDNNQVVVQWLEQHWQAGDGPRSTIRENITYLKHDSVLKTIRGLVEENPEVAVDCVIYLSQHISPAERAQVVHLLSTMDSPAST

## CCOc1ccc(COc2ccc3sc(C(C)NC(C)=O)cc3c2)cc1 (stereo not drawn) [Example 39, N-(1-{5-[(4-ethoxybenzyl)oxy]-1-benzothiophen-2-yl}ethyl)acetamide]
[1]
  inhibition at 10 µM: 80%
[2]
  inhibition at 10 µM: 17%

## CCOc1ccc(COc2ccc3oc(C(C)NC(C)=O)nc3c2)cc1 (stereo not drawn) [Example 42, N-(1-{5-[(4-ethoxybenzyl)oxy]-1,3-benzoxazol-2-yl}ethyl)acetamide]
[1]
  inhibition at 10 µM: 76%
[2]
  inhibition at 10 µM: 1%

## CCCCOc1ccc(CCc2ccc3cc(C(C)NC(C)=O)oc3c2)cc1 (stereo not drawn) [Example 44, N-(1-{6-[2-(4-butoxyphenyl)ethyl]-1-benzofuran-2-yl}ethyl)acetamide]
[1]
  inhibition at 10 µM: 78%
[2]
  inhibition at 10 µM: 35%

## CCCOc1ccc(CCc2ccc3cc(C(C)NC(C)=O)oc3c2)cc1 (stereo not drawn) [Example 47, optically active forms (two kinds) of N-(1-{6-[2-(4-propoxyphenyl)ethyl]-1-benzofuran-2-yl}ethyl)acetamide]
[1]
  ACC2 10 μM inhibitory rate (%): 91%
[2]
  ACC1 10 μM inhibitory rate (%): 37%

## CCOc1ccc(COc2ccc3oc(C(C)NC(C)=O)cc3c2)c(F)c1 (stereo not drawn) [Example 48, N-(1-{5-[(2-fluoro-4-ethoxybenzyl)oxy]-1-benzofuran-2-yl}ethyl)acetamide]
[1]
  inhibition at 10 µM: 78%
[2]
  inhibition at 10 µM: 10%

## CC(=O)NC(C)c1cc2ccc(CCc3ccc4c(c3)CCO4)cc2o1 (stereo not drawn) [Example 94, N-(1-{6-[2-(2,3-dihydro-1-benzofuran-5-yl)ethyl]-1-benzofuran-2-yl}ethyl)acetamide]
[1]
  inhibition at 10 µM: 80%
[2]
  inhibition at 10 µM: 19%

## COCOc1ccc(CCc2ccc3cc(C(C)NC(C)=O)oc3c2)cc1 (stereo not drawn) [Example 95, N-[1-(6-{2-[4-(methoxymethoxy)phenyl]ethyl}-1-benzofuran-2-yl)ethyl]acetamide]
[1]
  inhibition at 10 µM: 80%
[2]
  inhibition at 10 µM: 43%

## CCOc1ccc(CCc2cnc3cc([C@H](C)NC(C)=O)oc3c2)cc1 [Example 107, N-[(1S)-1-{6-[2-(4-ethoxyphenyl)ethyl]furo[3,2-b]pyridin-2-yl}ethyl]acetamide]
[1]
  inhibition at 10 µM: 70%
[2]
  inhibition at 10 µM: 12%

## CC(=O)NC(C)c1cc2cc(OCc3ccc(OCC4CC4)cc3F)ccc2o1 (stereo not drawn) [Example 110, N-[1-(5-{[4-(cyclopropylmethoxy)-2-fluorobenzyl]oxy}-1-benzofuran-2-yl)ethyl]acetamide]
[1]
  inhibition at 10 µM: 78%
[2]
  inhibition at 10 µM: 40%

## CCCOc1ccc(C#Cc2ccc3c(c2)O[C@H]([C@H](C)NC(C)=O)C3)cc1 [Example 115, N-[(1S)-1-{(2S)-6-[(4-propoxyphenyl)ethynyl]-2,3-dihydro-1-benzofuran-2-yl}ethyl]acetamide]
[1]
  inhibition at 10 µM: 76%
[2]
  inhibition at 10 µM: 25%

## CC(=O)NC(C)c1cc2cc(OCc3ccc(OCC4CC4)cc3F)ccc2o1 (stereo not drawn) [Example 116 (retention time longer), N-[1-(5-{[4-(cyclopropylmethoxy)-2-fluorobenzyl]oxy}-1-benzofuran-2-yl)ethyl]acetamide]
[1]
  ACC2 10 μM inhibitory rate (%): 63%
[2]
  ACC1 10 μM inhibitory rate (%): 24%

## CCOc1ccc(CCc2ccc3cc(C(C)NC(C)=O)oc3n2)cc1 (stereo not drawn) [Example 123, N-(1-{6-[2-(4-ethoxyphenyl)ethyl]furo[2,3-b]pyridin-2-yl}ethyl)acetamide]
[1]
  inhibition at 10 µM: 78%
[2]
  inhibition at 10 µM: 8%

## CCOc1ccc(CCc2ccc3cc(C(C)Nc4ccon4)oc3c2)cc1 (stereo not drawn) [Example 124, N-(1-{6-[2-(4-ethoxyphenyl)ethyl]-1-benzofuran-2-yl}ethyl)isoxazol-3-amine]
[1]
  inhibition at 10 µM: 81%
[2]
  inhibition at 10 µM: 16%

## CCOc1ccc(/C=C/c2ccc3cc(C(C)NC(C)=O)oc3c2)cc1 (stereo not drawn) [Example 125, N-(1-{6-[(E)-2-(4-ethoxyphenyl)ethenyl]-1-benzofuran-2-yl}ethyl)acetamide]
[1]
  inhibition at 10 µM: 83%
[2]
  inhibition at 10 µM: 33%

## CC(=O)NC(C)c1cc2cc(OCc3ccc(OCC4CC4)cc3)ccc2o1 (stereo not drawn) [Example 132 (retention time longer), N-[1-(5-{[4-(cyclopropylmethoxy)benzyl]oxy}-1-benzofuran-2-yl)ethyl]acetamide]
[1]
  inhibition at 10 µM: 91%
[2]
  inhibition at 10 µM: 46%
